The text below walks through data of publication PMC12766724, “Synthesis, Anthelmintic Activity, and Mechanism of Action of 5‑Aryl‑1H‑indoles” (Journal of Agricultural and Food Chemistry, 2025).

The test system of series [1] is age unsynchronized Ditylenchus destructor. Description: Motility on WMicrotracker ONE. The format is in vivo. On the procedure:
Populations of D. destructor, kindly provided by Central Institute for Supervising and Testing in Agriculture, the Ministry of Agriculture of the Czech Republic, were maintained according to the protocol previously described here.
(§1) The effect of compounds on motility of H. contortus, D. destructor, and H. schachtii was evaluated using the WMicrotracker ONE platform according to previously published protocols. ,
(§2) The instrument evaluates the activity of small animals by counting how many times infrared light microbeams passing through the wells of a microtiter plate are interrupted. In age-unsynchronized populations of D. destructor, we observed reduced motility of worm populations treated with the halogenated derivatives i-19, i-20, and i-21 (Figures A, S2.1A, S2.2A and Table S2.1). […] The decreases in mean activity counts after 72 h of treatment at 100 μM were 85% and 97%, respectively.

Series [2] has as its system Heterodera schachtii second-stage juveniles (J2). Description: Motility on WMicrotracker ONE. The format is in vivo. As for the experimental part: H. schachtii was maintained on mustard (Sinapsis alba cv. Albatros) roots grown in vitro on modified KNOP medium according to the previously published protocols. ,
as §1, §2

The subject of series [3] is human keratinocytes (HaCaT). Description: Resazurin assay, 3-day treatment. The format is cell-based. On the procedure: (§3) Skin fibroblasts (BJ) were obtained from the American Type Culture Collection (ATCC, Manassas, VA), while human keratinocytes (HaCaT) were sourced from the German Cancer Research Center in Heidelberg, Germany. Cells were cultured in a standard DMEM medium from Sigma-Aldrich, supplemented with 10% fetal bovine serum, 2 mM glutamine, 100 U/mL penicillin, and 100 μg/mL streptomycin. Cultures were maintained under standard conditions (37 °C, 5% CO2, humidified atmosphere) and subcultured two to three times per week. We assessed the effect of 3-day compound treatments on cell viability using a resazurin reduction assay measuring mitochondrial activity. Approximately 5,000 cells in 80 μL of culture medium were seeded into the wells of a 96-well plate. Twenty-four hours later, 20 μL of 5-fold concentrated test compound solutions was added and tested across three concentrations prepared through 2-fold serial dilutions. The highest final concentration was 40 μM. After 72 h, we added an 11-fold concentrated resazurin solution to the wells, achieving a final concentration of 0.0125 μM. Fluorescence (ex = 570 nm, em = 610 nm) was measured after 3 h of incubation.
The disubstituted derivatives i-25 and i-27 were the most toxic in the set, causing around a 50% decrease in viability of HaCaT cells at 40 μM.
A general note: The colour change of resazurin is a common sign of viable cells or microbes.

Series [4] relates to Skin fibroblasts (BJ). Description: Resazurin assay, 3-day treatment. The series is classed as cell-based, human. The following applies: BJ. On the procedure:
as §3, with “incubation. […]” for “incubation.”

In series [5] the test system is C. elegans N2 wild-type. Kind of series: Chitinase assay (reproductive capacity). The following applies: Caenorhabditis elegans. The format is in vivo, Caenorhabditis elegans. On the procedure: The effect of compounds on C. elegans was evaluated using the Chitinase assay as we described previously.
After exposing L1 larvae to the compounds for 4 days, we observed the populations under a microscope and measured the Chitinase activity. The larvae produce the enzyme while hatching, and its activity is indicative of the reproductive capacity of the worms. Populations that fail to reproduce due to acute or reproductive toxicity or developmental abnormalities are detected.

Series [6] deals with C. elegans N2. Kind of series: Scoring of developmental rates, L1 exposed 5 days. The format is in vivo, Caenorhabditis elegans. Details: key: 1 = dead/arrested at L1 … 5 = healthy, normal reproduction. The following applies: 1 µM (control). The source says: (§4) Dead or mostly immobile worms, arrested at the L1 stage, received a score of 1. Populations with severely delayed development were scored as 2. More developmentally advanced, but still obviously delayed worms were given the score of 3. Adult worms that produce a noticeably lower number of progeny received a score of 4. Healthy worms that reproduce normally (i.e., hundreds of eggs and larvae are present) were scored as 5 (see Figure C for representative images). In a typical, correctly prepared experiment, vehicle-treated populations should receive a score of 5, while worms treated with ivermectin (positive control) should receive a score of 1. […]

In series [7] the test system is C. elegans complex II mutant RP2702. Description: Scoring of developmental rates, L1 exposed 5 days. The following applies: 1 µM (control). The series is classed as in vivo, Caenorhabditis elegans.
Description: as §4

Series [8] concerns C. elegans complex II mutant RP2700. Description: Scoring of developmental rates, L1 exposed 5 days. To be noted: 1 µM (control). The format is in vivo, Caenorhabditis elegans.
Description: as §4

The test system of series [9] is C. elegans complex II mutant RP2699. Kind of series: Scoring of developmental rates, L1 exposed 5 days. The series is classed as in vivo, Caenorhabditis elegans. To be noted: 1 µM (control).
Description: as §4

Setting [10] is: 10 mM group, initial (prior to the treatment).

`[N-]=[N+]=[N-].[Na+]` [NaN3, reference compound]: the average activity counts in series [1] (setting [10]) amounted to 223; in [1] (10 mM, 48 h) it was 7; in series [1] (10 mM, 72 h), 2; in series [2] (setting [10]), 182; in [2] (10 mM, 48 h), 2; in series [2] (10 mM, 72 h), 2.

In the case of `Oc1cccc(-c2ccc3[nH]ccc3c2)c1` [i-3], the “Average viability (signal intensity relative to control)” value in series [3] (10 µM) is 1.02 ± 0.06; in series [3] (20 µM), 1 ± 0.06; in series [3] (40 µM), 0.93 ± 0.06; in series [4] (10 µM), 1 ± 0.01; in [4] (20 µM), 0.97 ± 0; in [4] (40 µM) it was 0.89 ± 0.

For the compound `COc1ccc(-c2ccc3[nH]ccc3c2)cc1` [i-7], the 50% inhibitory concentration (IC50) in series [5] came to 15.8 ± 1.78 µM.

Consider `CC(C)Oc1ccc(-c2ccc3[nH]ccc3c2)cc1` [i-16], for which, in [5], the IC50 worked out at 15.2 ± 0.89 µM.

`Oc1cc(-c2ccc3[nH]ccc3c2)ccc1Cl` [i-24] displayed an IC50 in series [5] of 25 to 50 µM.

In the case of `CC[C@H](C)[C@H]1O[C@]2(CC[C@@H]1C)C[C@@H]1C[C@@H](C/C=C(\C)[C@@H](O[C@H]3C[C@H](OC)[C@@H](O[C@H]4C[C@H](OC)[C@@H](O)[C@H](C)O4)[C@H](C)O3)[C@@H](C)/C=C/C=C3\CO[C@@H]4[C@H](O)C(C)=C[C@@H](C(=O)O1)[C@]34O)O2` [ivermectin, reference compound], the “mean score (1-5)” value amounted to 1 in series [6], 1 in series [7], 1 in series [8] and 1.333 in series [9].

As a reminder, the IC50 is the concentration at which inhibition is half-maximal.
